Laboratory results taken from patent US12202844B2, “MAP4K1 inhibitors” (Blueprint Medicines Corporation, priority 2021, dated 2025).
pEC50, pIC50: −log10 of the molar value.

biological target: T1, MAP4K1 (HPK1) (Homo sapiens, UniProt Q92918); assay: Inhibition of MAP4K1 biochemical enzymatic activity (EZReader 2 electrophoretic mobility shift); details: HPK1 (Invitrogen), S6K2tide 1.5 μM, 120 min; ATP 26 μM or 1000 μM (not given)
T1 construct: purchased Invitrogen
Source text: MAP4K1 (HPK1) and relevant off-target enzymatic activity was monitored using the Perkin Elmer electrophoretic mobility shift technology platform—the EZReader 2. […] Within the linear, steady-state phase of the kinase enzymatic reaction, the mixed pool of phosphorylated (product) and non-phosphorylated (substrate) peptides was passed through the microfluidic system of the PerkinElmer EZ Reader 2, under an applied electric potential difference. The presence of the phosphate group on the product peptide provided a difference in mass and charge between that of the substrate peptide, resulting in a separation of the substrate and product pools in the sample (Perrin et al. 2010). As the product and substrate peptide mixture passes the lasers within the instrument, these pools are detected (λex=488 nm, λem=568 nm) and resolved as separate peaks. The ratio between these peaks reflects the activity of the compound at that concentration, in that well, under those conditions.
Inhibitors were dissolved in 100% DMSO at a stock concentration of 10 mM. A 100×, 10-point, 4-fold serial dilution of each inhibitor was created in 100% DMSO either manually or on a Hamilton STAR liquid handler, starting at a relevant concentration, usually 1 mM. A volume of 0.130 μL of each concentration was transferred to the relevant wells of a 384-well plate (Greiner 781 201) in duplicate using a TTPLabtech Mosquito nano-litre dispenser. Using a Multidrop Combi, the remaining constituents of the kinase reaction were added to the 130 nL of dosed compound as follows (see table below for final reaction details):
Enzyme activity assays at the ^APPKM for ATP or 1 mM ATP: In each well of a 384-well plate, 0.1-15 nM of untreated enzyme was incubated in a total of 13 μL of buffer (100 mM HEPES pH 7.5, 0.015% Brij 35, 10 mM MgCl2, 1 mM DTT) with 1.5 μM fluorescent peptid and 20-1000 μM ATP, at 25° C., for 60-180 minutes in the presence or absence of a dosed concentration series of compound (1% DMSO final concentration). The kinase reactions were stopped by the addition of 70 μl of Stop buffer (100 mM HEPES pH 7.5, 0.015% Brij 35, 35 mM EDTA and 0.2% of Coating Reagent 3 (Caliper Lifesciences)). The plates were read on a Caliper EZReader 2 as described above.

T1 sequence (Q92918 whole entry): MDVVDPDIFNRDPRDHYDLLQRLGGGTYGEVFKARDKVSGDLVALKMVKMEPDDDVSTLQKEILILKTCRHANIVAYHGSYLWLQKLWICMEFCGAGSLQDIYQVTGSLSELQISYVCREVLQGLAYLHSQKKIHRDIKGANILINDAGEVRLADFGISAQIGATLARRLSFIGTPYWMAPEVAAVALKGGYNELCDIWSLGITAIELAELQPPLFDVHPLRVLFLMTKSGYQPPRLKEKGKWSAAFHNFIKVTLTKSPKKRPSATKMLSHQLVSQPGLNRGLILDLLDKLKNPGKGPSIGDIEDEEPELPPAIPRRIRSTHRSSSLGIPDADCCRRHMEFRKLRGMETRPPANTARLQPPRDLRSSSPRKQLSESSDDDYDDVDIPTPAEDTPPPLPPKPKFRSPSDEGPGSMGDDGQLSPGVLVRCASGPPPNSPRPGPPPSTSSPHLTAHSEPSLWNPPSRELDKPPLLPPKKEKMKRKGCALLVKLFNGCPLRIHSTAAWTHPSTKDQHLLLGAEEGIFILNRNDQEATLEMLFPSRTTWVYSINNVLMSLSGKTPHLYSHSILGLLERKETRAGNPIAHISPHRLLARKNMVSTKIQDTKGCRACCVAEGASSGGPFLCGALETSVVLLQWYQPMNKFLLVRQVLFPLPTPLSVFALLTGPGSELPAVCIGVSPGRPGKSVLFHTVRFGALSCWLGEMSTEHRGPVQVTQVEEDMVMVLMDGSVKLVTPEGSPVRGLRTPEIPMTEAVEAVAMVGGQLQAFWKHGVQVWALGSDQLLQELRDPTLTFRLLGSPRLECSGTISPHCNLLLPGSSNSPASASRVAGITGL

Structure (SMILES) | pIC50
C[C@H](C[C@@H](C)S(C)(=O)=O)Oc1ncc(C(C)(C)N)c2cc(Nc3ccc4c(n3)[C@@H](C)[C@H](C)OC4=O)ncc12 [Compound 51] | 9.82
C[C@H](CCS(C)(=O)=O)Oc1ncc(C(C)(C)N)c2cc(Nc3ccc4c(n3)C3(CC3)C(C)(C)OC4=O)ncc12 [Compound 67] | 9.11
C[C@@H]1OC(=O)c2cc(Nc3cncc4c(OCCCS(C)(=O)=O)ncc(C(C)(C)N)c34)cnc2[C@H]1C [Compound 7] | 9.55
C[C@H](C[C@@H](C)S(C)(=O)=O)Oc1ncc([C@H](N)C2CC2)c2cc(Nc3ccc4c(n3)[C@@H](C)C(C)(C)OC4=O)ncc12 (single isomer, unassigned) [Compound 110] | 9.66
CCS(=O)(=O)CC[C@@H](C)Oc1ncc(C(C)(C)N)c2cc(Nc3ccc4c(n3)[C@@H](C)C(C)(C)OC4=O)ncc12 (single isomer, unassigned) [Compound 98] | 9.64
CCS(=O)(=O)[C@H]1C[C@@H](Oc2ncc(C(C)(C)N)c3cc(Nc4ccc5c(n4)[C@@H](C)C(C)(C)OC5=O)ncc23)C1 [Compound 80] | 10.10
CC[C@@](C)(N)c1cnc(O[C@@H](C)CCS(=O)(=O)C2CC2)c2cnc(Nc3ccc4c(n3)[C@@H](C)[C@H](C)OC4=O)cc12 (single isomer, unassigned) [Compound 106] | 9.66
CC[C@@](C)(N)c1cnc(OCCCS(C)(=O)=O)c2cnc(Nc3ccc4c(n3)CC(C)(C)OC4=O)cc12 [Compound 23] | 9.52
CC[C@@](C)(N)c1cnc(O[C@@H](C)CCS(C)(=O)=O)c2cnc(Nc3ccc4c(n3)C(C)(C)[C@H](C)OC4=O)cc12 (single isomer, unassigned) [Compound 97] | 8.68
CC[C@@](C)(N)c1cnc(OCCCS(C)(=O)=O)c2cnc(Nc3ccc4c(n3)[C@H](C)[C@H](C)OC4=O)cc12 (single isomer, unassigned) [Compound 21] | 9.74
CCS(=O)(=O)[C@H](C)C[C@@H](C)Oc1ncc(C(C)(C)N)c2cc(Nc3ccc4c(n3)[C@@H](C)[C@H](C)OC4=O)ncc12 [Compound 89] | 9.62
CC[C@@](C)(N)c1cnc(O[C@@H](C)CC(C)(C)S(C)(=O)=O)c2cnc(Nc3ccc4c(n3)[C@@H](C)[C@H](C)OC4=O)cc12 (single isomer, unassigned) [Compound 184] | 9.08
C[C@H]1OC(=O)c2ccc(Nc3cc4c(C(C)(C)N)cnc(O[C@H]5C[C@@H](S(C)(=O)=O)C5)c4cn3)nc2C12CC2 (single isomer, unassigned) [Compound 24] | 9.82
C[C@@H]1OC(=O)c2ccc(Nc3cc4c(C(C)(C)N)cnc(O[C@H]5C[C@H](S(=O)(=O)N(C)C)C5)c4cn3)nc2[C@H]1C [Compound 82] | 9.46
COC[C@@](C)(N)c1cnc(O[C@H](C)C[C@@H](C)S(C)(=O)=O)c2cnc(Nc3ccc4c(n3)[C@@H](C)[C@H](C)OC4=O)cc12 [Compound 134] | 9.32
C[C@@H]1[C@H](S(C)(=O)=O)C[C@H]1Oc1ncc(C(C)(C)N)c2cc(Nc3ccc4c(n3)[C@@H](C)C(C)(C)OC4=O)ncc12 (single isomer, unassigned) [Compound 71] | 9.55
C[C@@H]1OC(=O)c2ccc(Nc3cc4c(C(C)(C)N)cnc(O[C@@H]5CC[C@H](S(C)(=O)=O)C5)c4cn3)nc2[C@H]1C (single isomer, unassigned) [Compound 41] | 9.17
C[C@H](CCS(C)(=O)=O)Oc1ccc(C(C)(C)N)c2cc(Nc3ccc4c(n3)[C@@H](C)C(C)(C)OC4=O)ncc12 (single isomer, unassigned) [Compound 46] | 9.15
CC(C)(N)c1cnc(O[C@H]2C[C@@H](S(C)(=O)=O)C2)c2cnc(Nc3ccc4c(n3)C(C)(C)OC4=O)cc12 [Compound 4] | 8.73

Structure (SMILES) | pIC50
C[C@@H]1OC(=O)c2ccc(Nc3cc4c(C(C)(C)N)cnc(OC5CS(=O)(=O)C5)c4cn3)nc2[C@H]1C [Compound 1] | 9.59
C[C@H](C[C@H]1CCCS1(=O)=O)Oc1ncc(C(C)(C)N)c2cc(Nc3ccc4c(n3)[C@@H](C)C(C)(C)OC4=O)ncc12 (single isomer, unassigned) [Compound 159] | 9.38
CCC[C@@](C)(N)c1cnc(O[C@H](C)C[C@@H](C)S(C)(=O)=O)c2cnc(Nc3ccc4c(n3)[C@@H](C)C(C)(C)OC4=O)cc12 (single isomer, unassigned) [Compound 142] | 9.70
CC[C@@](C)(N)c1cnc(O[C@H]2C[C@@H](S(C)(=O)=O)C2)c2cnc(Nc3ccc4c(n3)C3(CC3)C(C)(C)OC4=O)cc12 [Compound 100] | 9.82
C[C@@H]1OC(=O)c2ccc(Nc3cc4c(C(C)(C)N)cnc(O[C@H]5C[C@@H](S(=O)(=O)C6CC6)C5)c4cn3)nc2[C@H]1C [Compound 61] | 9.82
CC[C@@](C)(N)c1cnc(O[C@H](C)CCS(C)(=O)=O)c2cnc(Nc3ccc4c(n3)C(C)(C)[C@@H](C)OC4=O)cc12 [Compound 178] | 9.26
C[C@@H]1c2nc(Nc3cc4c(C(C)(C)N)cnc(OC5(C)CS(=O)(=O)C5)c4cn3)ccc2C(=O)OC1(C)C [Compound 10] | 9.92
CC[C@@](C)(N)c1cnc(O[C@H]2C[C@@H](S(C)(=O)=O)C2)c2cnc(Nc3ccc4c(n3)[C@H](C)COC4=O)cc12 (single isomer, unassigned) [Compound 8] | 9.51
CC[C@@](C)(N)c1cnc(O[C@@H](C)CCS(=O)(=O)C2CC2)c2cnc(Nc3ccc4c(n3)[C@@H](C)[C@H](C)OC4=O)cc12 (single isomer, unassigned) [Compound 107] | 9.59
C[C@@H]1OC(=O)c2ccc(Nc3cc4c(C(C)(C)N)cnc(O[C@H]5C[C@H](S(C)(=O)=O)C5)c4cn3)nc2[C@H]1C [Compound 14] | 9.55
CC[C@@](C)(N)c1cnc(O[C@@H](C)CCS(C)(=O)=O)c2cnc(Nc3ccc4c(n3)C(C)(C)[C@@H](C)OC4=O)cc12 [Compound 177] | 8.96
CC[C@@](C)(N)c1cnc(O[C@H](C)CCS(C)(=O)=O)c2cnc(Nc3ccc4c(n3)C(C)(C)[C@H](C)OC4=O)cc12 (single isomer, unassigned) [Compound 96] | 9.11
COC[C@@](C)(N)c1cnc(O[C@H](C)C[C@@H](C)S(C)(=O)=O)c2cnc(Nc3ccc4c(n3)C3(CC3)C(C)(C)OC4=O)cc12 [Compound 164] | 8.83
C[C@@H]1c2nc(Nc3cc4c(C(C)(C)N)cnc(O[C@@H](CCS(C)(=O)=O)C(F)(F)F)c4cn3)ccc2C(=O)OC1(C)C (single isomer, unassigned) [Compound 172] | 8.73
CC[C@@](C)(N)c1cnc(O[C@H](C)CCS(C)(=O)=O)c2cnc(Nc3ccc4c(n3)C(C)(C)COC4=O)cc12 [Compound 50] | 9.25
C[C@@H]1c2nc(Nc3cc4c(C(C)(C)N)cnc(OCCC[S@@](C)(=N)=O)c4cn3)ccc2C(=O)OC1(C)C (single isomer, unassigned) [Compound 169] | 9.22
CC[C@@](C)(N)c1cnc(O[C@H]2C[C@H](CS(C)(=O)=O)C2)c2cnc(Nc3ccc4c(n3)[C@@H](C)[C@H](C)OC4=O)cc12 [Compound 72] | 10.00
C[C@@H]1OC(=O)c2ccc(Nc3cc4c(C(C)(C)N)cnc(O[C@@H]5CC[C@@H](S(C)(=O)=O)C5)c4cn3)nc2[C@H]1C (single isomer, unassigned) [Compound 35] | 9.32
CC[C@@](C)(N)c1cnc(O[C@H](C)CC(C)(C)[S@@](C)(=N)=O)c2cnc(Nc3ccc4c(n3)C(C)(C)[C@@H](C)OC4=O)cc12 (single isomer, unassigned) [Compound 189] | 8.98

test system: Primary T Cell (expanded CD3+ T cells); assay: T cell enhancement of cytokines: IL2 measurement (HTRF) in stimulated expanded CD3+ T cells; assay type: cell-based, human; details: Homo sapiens, T-cell, 24 h, plate-bound anti-CD3 and soluble anti-CD28, 24 h, IL2 by HTRF; read-out: IL-2 Primary T Cell EC50
Description: T cells are isolated from whole blood of healthy donors by immunomagnetic negative selection following manufacture's protocol (StemCell Technologies, human T cell isolation kit). Purity of isolated cells is assessed by flow cytometry and yields 95-98% CD3^+ T cells. For expansion of T cells, 1×10^6 cells/well are plated in serum free cell expansion media (ThermoFisher) containing 30 U of recombinant human IL2 (R&D) and stimulated with 25 ul of CD3/CD28 beads (Invitrogen) in 24 well plates for 3-4 days. T cells are then expanded in 175 cm flasks and maintained at a cell density of 1 to 2.5×10^6 cells/ml days by addition of ⅔ of fresh media every 2-3 days. After 10-14 days, cells are frozen in BamBanker freezing media (Thermo) and stored in liquid nitrogen.
For IL2 measurement, expanded CD3^+ T cells are dispensed at 100K cells/well (cultured in X-VIVO 10 Serum-free media) and are stimulated with plate-bound anti-CD3 and soluble anti-CD28 in the presence of vehicle or compound of the disclosure at various concentrations for 24 h. As outlined in the manufacturer's protocol (Cisbio), 16 μL of conditioned media is transferred to a white 384-well low volume plate. Following a 24 h incubation with the anti-IL2 antibodies, the homogenous time resolved fluorescence (HTRF) is measured.

Structure (SMILES) | pEC50
C[C@H](C[C@@H](C)S(C)(=O)=O)Oc1ncc(C(C)(C)N)c2cc(Nc3ccc4c(n3)[C@@H](C)[C@H](C)OC4=O)ncc12 [Compound 51] | 7.60
C[C@H](CCS(C)(=O)=O)Oc1ncc(C(C)(C)N)c2cc(Nc3ccc4c(n3)C3(CC3)C(C)(C)OC4=O)ncc12 [Compound 67] | 7.40
C[C@@H]1OC(=O)c2cc(Nc3cncc4c(OCCCS(C)(=O)=O)ncc(C(C)(C)N)c34)cnc2[C@H]1C [Compound 7] | 7.96
C[C@H](C[C@@H](C)S(C)(=O)=O)Oc1ncc([C@H](N)C2CC2)c2cc(Nc3ccc4c(n3)[C@@H](C)C(C)(C)OC4=O)ncc12 (single isomer, unassigned) [Compound 110] | 7.44
CCS(=O)(=O)CC[C@@H](C)Oc1ncc(C(C)(C)N)c2cc(Nc3ccc4c(n3)[C@@H](C)C(C)(C)OC4=O)ncc12 (single isomer, unassigned) [Compound 98] | 7.17
CCS(=O)(=O)[C@H]1C[C@@H](Oc2ncc(C(C)(C)N)c3cc(Nc4ccc5c(n4)[C@@H](C)C(C)(C)OC5=O)ncc23)C1 [Compound 80] | 8.05
